# Results taken from patent US9096591B2, “Tetracyclic compounds” (Medivation Technologies, Inc., priority 2007, dated 2015).
# Where “and” joins values, the source holds several entries; their conditions need not be identical. Equal values may be shown once.
# Legend:
# [1] = molecular target: T1, human recombinant dopamine D2L receptor (Homo sapiens, UniProt P14416); test: Dopamine D2L antagonist activity ([35S]GTPγS binding, SPA); format: biochemical; conditions: for Antagonist Activity As Measured by % Inhibition D2L / inhibition at 0.03 µM / inhibition at 0.1 µM / inhibition at 0.3 µM: two values = assay run twice; for inhibition at 0.03 µM / inhibition at 0.1 µM / inhibition at 0.3 µM / inhibition at 1 µM / inhibition at 3 µM: read-out: Antagonist Activity As Measured by % Inhibition D2L
# T1 construct: expressed in transfected cells; host or cells: CHO cells
# T1 sequence (P14416 whole entry): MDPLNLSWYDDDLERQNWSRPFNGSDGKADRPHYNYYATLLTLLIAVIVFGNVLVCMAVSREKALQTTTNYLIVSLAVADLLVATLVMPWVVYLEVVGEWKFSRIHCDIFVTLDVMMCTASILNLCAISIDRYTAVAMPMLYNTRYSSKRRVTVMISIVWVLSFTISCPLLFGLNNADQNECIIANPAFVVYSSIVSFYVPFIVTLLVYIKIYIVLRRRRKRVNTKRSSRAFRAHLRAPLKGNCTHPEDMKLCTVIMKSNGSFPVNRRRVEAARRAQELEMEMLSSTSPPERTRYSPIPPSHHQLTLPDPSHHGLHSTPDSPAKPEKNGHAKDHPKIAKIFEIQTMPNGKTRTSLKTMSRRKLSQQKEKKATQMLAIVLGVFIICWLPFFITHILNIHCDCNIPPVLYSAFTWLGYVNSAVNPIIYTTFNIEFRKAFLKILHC
# Method: To determine for agonist or antagonist activity of compounds of the invention in functional assays, human recombinant dopamine D2L receptor stably expressed in Chinese hamster ovary (CHO) cells (Senogles S E et al. J Biol Chem. 265(8): 4507, 1990) was used. Compounds of invention were pre-incubated with the membranes (0.1 mg/ml) and […] in modified HEPES buffer (20 mM HEPES, pH 7.4, 100 mM NaCl, 10 mM MgCl2, 1 mM DTT, 1 mM EDTA) for 20 minutes and Scintillation Proximity Assay (SPA) beads were added for another 60 minutes at 30° C. The reaction was initiated by 0.3 nM [^35S]GTPγS for an additional 15 minute incubation period. […] Compounds were screened at 3 μM or lower, using 0.4% DMSO as vehicle. Assay results are presented as the percent response of specific binding in Table 8.
# [2] = molecular target: T2, human recombinant serotonin 5-HT2A receptor (Homo sapiens, UniProt P28223); test: Serotonin 5-HT2A agonist/antagonist functional assay (calcium fluorescence, HEK-293); format: cell-based; conditions: antagonist mode
# T2 construct: expressed in transfected cells; host or cells: HEK-293 cells
# T2 sequence (P28223 whole entry): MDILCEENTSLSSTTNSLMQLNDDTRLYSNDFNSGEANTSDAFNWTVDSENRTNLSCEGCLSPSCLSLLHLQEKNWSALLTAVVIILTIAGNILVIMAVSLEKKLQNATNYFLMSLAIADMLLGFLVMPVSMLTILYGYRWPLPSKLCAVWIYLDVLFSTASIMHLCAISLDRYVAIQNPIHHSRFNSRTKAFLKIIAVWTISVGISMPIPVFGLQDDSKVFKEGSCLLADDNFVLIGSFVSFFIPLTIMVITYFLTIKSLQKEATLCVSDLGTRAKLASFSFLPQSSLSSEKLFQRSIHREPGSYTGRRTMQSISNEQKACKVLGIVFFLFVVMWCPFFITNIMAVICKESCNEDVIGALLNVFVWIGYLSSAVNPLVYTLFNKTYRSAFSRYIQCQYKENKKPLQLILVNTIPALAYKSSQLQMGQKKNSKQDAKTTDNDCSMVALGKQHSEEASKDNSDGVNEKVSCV
# From the text: To determine for agonist or antagonist activity of compounds of the invention in functional assays, human recombinant serotonin 5-HT2A receptor expressed in human embryonic kidney (HEK-293) cells (Jerman J C, Brough S J, Gager T, Wood M, Coldwell M C, Smart D and Middlemiss D N. Eur J Pharmacol, 414: 23-30, 2001) was used. Cells were suspended in DMEM buffer, and distributed in microplates. A cytoplasmic calcium fluorescent indicator which varies proportionally to the free cytosolic Ca^2+ ion concentration was mixed with probenicid in HBSS buffer complemented with 20 mM Hepes (pH 7.4), added into each well and equilibrated with the cells for 30 min at 37° C. followed by 30 min at 22° C. […]
# The standard reference antagonist was ketanserin, which was tested in each experiment at several concentrations to generate a concentration-response curve from which its IC50 value was calculated.
# C57BL/6 mice = test: Recognition of a new location of the known object (spatial memory); format: in vivo
# From the text: The object recognition test is based on the fact that mice and rats spontaneously explore new object or location of a known object a lot longer than the know object or a known location of an object. This test was first used in rats (Ennaceur A., Delacour J., 1988). It was further shown by others that this type of memory testing is suitable for mice (Dodart J. et al. 1997, Messier C. 1997, Pittenger C. et al., 2002, Ryabinin A. et al., 2002, Sargolini F. et al., 2003). The method of recognition of an object is divided in two stages. The first one involves the recognition of a new location of a known object, which is used to assess spatial memory. The second one includes a test for recognition of a new in order to evaluate the non-spatial memory (Gaffan D., 1992, Kolb B. et al., 1994, Steckler T., 1998). Currently, both are widely used to determine the effectiveness of newly synthesized drugs on memory.
# All experiments were carried out on 3-4 months old males (C57BL/6 line) 22-26 g weight with 10 animals in each group. All animals were kept in the animal facility (5 animals per cage) on the 12×12 hours light cycle (8 am-8 pm) with free access to food and water. […] Brown glass vials were used as test objects which are 2.7 cm in diameter (1.1 inch) and 5.5 cm high (2.2 inch). All vials were treated with 85% ethanol 2-3 minutes before each testing. Animals were placed in the center of the chamber.
# Dimebon and compounds of the invention were dissolved in distilled water and administered orally at 0.05 mL per 10 g of animal mass 1 hour before the training exercise. All animals in the control group were treated with the equivalent dose of vehicle. The testing was performed 48 hours after the training exercise because animals forget the location of the object during the 48-hour resting time.
# On the first day animals were brought in the testing room so that they could adapt to the testing environment for 20-30 min. Subsequently, each animal was placed in the empty testing chamber for 10 min, which was wiped with alcohol beforehand. After that animals were transferred back into the […] and returned to the animal facility.
# The next day after habituation, the animals were brought back into the testing room where they were weighed and injected with the testing compound. An hour after injection, each animal was placed into the testing camber which had two identical objects that were positioned 14.5 cm (5.7 inches) from the corners on the diagonal. The training exercise lasted for 15 min for each animal. Subsequently, each animal was placed back into the cage and returned into the animal house.
# The testing procedure was performed 48 hours after the training exercise. During the procedure two objects were used as in the training exercise. […] The amount of time that each animal spent on exploration each object was determined with 0.1 sec accuracy using two electronic stopwatches for total of 10 min. […] The survey of the object was counted as positive if the nose of an animal was pointed within 2 cm or if the animal was touching the objected directly with the nose.
# Due to fair differences in the amount of time that each animal surveyed the object, the percentage of the survey time for each animal was determined using this formula: tNL/(tFL+tNL)×100 (where t is time, NL—new location(object), and FL—familiar location(object)). […] Subsequently, the statistical significance was analyzed using a Student's t-test criteria.
SMILES,Antagonist Activity As Measured by % Inhibition D2L ([1]; 0.03 uM) [%],inhibition at 0.03 µM ([1]; 0.03 uM) [%],inhibition at 0.1 µM ([1]; 0.1 uM) [%],Antagonist Activity As Measured by % Inhibition D2L ([1]; 0.3 uM) [%],inhibition at 0.3 µM ([1]; 0.3 uM) [%],inhibition at 1 µM [1] [%],inhibition at 3 µM [1] [%],"% of Control Agonist Response, 1st Assay ([2]; test concentration 1.00E−07 M)","% of Control Agonist Response, 2nd Assay ([2]; test concentration 1.00E−07 M)","% of Control Agonist Response, Mean ([2]; test concentration 1.00E−07 M)","% of Control Agonist Response, Mean ([2]; test concentration 3.00E−06 M)","% of Control Agonist Response, 2nd Assay ([2]; test concentration 3.00E−07 M)","% of Control Agonist Response, 1st Assay ([2]; test concentration 3.00E−08 M)","% of Control Agonist Response, 2nd Assay ([2]; test concentration 3.00E−08 M)","% of Control Agonist Response, Mean ([2]; test concentration 3.00E−08 M)",also measured
"CN1CCc2c(c3cc(Cl)ccc3n2CCc2ccccc2)C1 [Compound 36, 8-chloro-2,3,4,5-tetrahydro-2-methyl-5-phenethyl-1H-pyrido[4,3-b]indole]",43,48,73,88,83,85,104,111% and 100% and 105%,102% and 106% and 115%,106.4% and 103% and 109.9%,5.3% and 9.7% and 0.4%,105% and 98% and 97%,109%,108%,108.7%,"Antagonist Activity As Measured by % Inhibition D2L ([1]; 0.1 uM): 57%; % of Control Agonist Response, 1st Assay ([2]; test concentration 3.00E−07 M): 92% and 109%; % of Control Agonist Response, Mean ([2]; test concentration 3.00E−07 M): 98.8% and 94.8% and 102.8%"
COc1ccc(CCn2c3c(c4cc(C)ccc42)CN(C)CC3)cc1 [Compound 247],52,48,66,83,81,89,91,117% and 93%,116% and 94% and 95%,116.5% and 93.5% and 93.9%,−3.2%,76% and 72% and 38%,122% and 103%,120% and 108% and 111%,121.3% and 104.5% and 107%,"% of Control Agonist Response, 1st Assay ([2]; test concentration 1.00E−06 M): −4% and −2% and 2%; % of Control Agonist Response, 2nd Assay ([2]; test concentration 1.00E−06 M): 0% and 3%; % of Control Agonist Response, Mean ([2]; test concentration 1.00E−06 M): −1.7% and 0.3% and 0.7%; % of Control Agonist Response, 1st Assay ([2]; test concentration 3.00E−06 M): −4%; % of Control Agonist Response, 2nd Assay ([2]; test concentration 3.00E−06 M): −3%"
CN1CCc2c(c3ccccc3n2CCc2noc(-c3ccccc3)n2)C1 [Compound C4-1],–,–,–,–,–,–,–,–,–,–,–,–,–,–,–,"effect on memory in the recognition test of a known object in a new location (C57BL/6 mice; 0.05 mg/kg, 0.5 mg/kg, and 1 mg/kg): not significantly different from the control group; time exploring the object in a new location, % of the total time (C57BL/6 mice; 0.1 mg/kg): 61.3±6.9%; time exploring the object in the known position, % of the total time (C57BL/6 mice; 0.1 mg/kg): 38.7±6.9%"
